The text below walks through data of patent publication US5710173A, “Thienyl compounds for inhibition of cell proliferative disorders” (Sugen, Inc., priority 1995, dated 1998).

The target of one test is T1, EGFR (Homo sapiens, UniProt P00533).
T1 construct: expressed in transfected cells; host or cells: NIH3T3 clone C7 (EGFR/C7)
The test is described as follows: EGFR Whole Cell Kinase Assay. In kind it is cell-based. Particulars: EGFR/C7 NIH3T3 cells, EGF 25 nM; quantity and unit inferred; read-out: ELISA DATA, EGFR. The source says: The following examples illustrates the ability of the exemplary compounds to inhibit receptor tyrosine kinases, such as HER2 and/or EGFR. The following target cells were used for cellular kinase assays: NIH3T3 clone C7 (Honegger et al., supra) engineered to over-express human EGF receptor; NIH3T3 cells engineered to over-express a chimeric receptor containing the EGFR extracellular domain and the HER2 intracellular kinase domain; the human mammary carcinoma line BT474 (ATCC HTB2) expressing HER2; and the human glioblastoma line U1242 that expresses PDGFR-beta. Growth assays were carried out using human mammary epithelial SKBR3 (ATCC HTB30) cells (SKBR3 cells over-express HER2), SKOV3 (ATCC HTB77) human ovarian cancer cell line (SKOV3 cells also over-express HER2), A431 cells (A431 cells over-express EGFR) MCF7 human breast carcinoma cells, MCF7 cells overexpressing the HER2 kinase (MCF7-HER2), NIH3T3 cells, and NIH3T3 cells overexpressing the HER2 kinase (3T3-HER2.
EGFR Whole Cell Kinase Assay
EGFR kinase activity (EGFR-3T3 assay) in whole cells was measured as described below:
1) EGF Ligand: stock concentration=16.5 μM; EGF 201, TOYOBO, Co., Ltd. Japan.
2) 05-101 (UBI) (a monoclonal antibody recognizing an EGFR extracellular domain).
3) Anti-Phosphotyosine antibody (polyclonal) (made according to Fendley et al., Cancer Research 50:1550-1558, 1990). […]
Background: An ELISA detects its analyte on a solid surface through an enzyme-linked reagent.

Test [1] deals with IGF-1R protein tyrosine kinase. Particulars: Sepp-Lorenzino et al., Abstract, 1994; cited from earlier work.
For test [2], the system named is human breast cancer cells. Particulars: Sepp-Lorenzino et al., Abstract, 1994; cited from earlier work.

Molecules are shown by their SMILES.

T1 sequence (P00533 25-1210): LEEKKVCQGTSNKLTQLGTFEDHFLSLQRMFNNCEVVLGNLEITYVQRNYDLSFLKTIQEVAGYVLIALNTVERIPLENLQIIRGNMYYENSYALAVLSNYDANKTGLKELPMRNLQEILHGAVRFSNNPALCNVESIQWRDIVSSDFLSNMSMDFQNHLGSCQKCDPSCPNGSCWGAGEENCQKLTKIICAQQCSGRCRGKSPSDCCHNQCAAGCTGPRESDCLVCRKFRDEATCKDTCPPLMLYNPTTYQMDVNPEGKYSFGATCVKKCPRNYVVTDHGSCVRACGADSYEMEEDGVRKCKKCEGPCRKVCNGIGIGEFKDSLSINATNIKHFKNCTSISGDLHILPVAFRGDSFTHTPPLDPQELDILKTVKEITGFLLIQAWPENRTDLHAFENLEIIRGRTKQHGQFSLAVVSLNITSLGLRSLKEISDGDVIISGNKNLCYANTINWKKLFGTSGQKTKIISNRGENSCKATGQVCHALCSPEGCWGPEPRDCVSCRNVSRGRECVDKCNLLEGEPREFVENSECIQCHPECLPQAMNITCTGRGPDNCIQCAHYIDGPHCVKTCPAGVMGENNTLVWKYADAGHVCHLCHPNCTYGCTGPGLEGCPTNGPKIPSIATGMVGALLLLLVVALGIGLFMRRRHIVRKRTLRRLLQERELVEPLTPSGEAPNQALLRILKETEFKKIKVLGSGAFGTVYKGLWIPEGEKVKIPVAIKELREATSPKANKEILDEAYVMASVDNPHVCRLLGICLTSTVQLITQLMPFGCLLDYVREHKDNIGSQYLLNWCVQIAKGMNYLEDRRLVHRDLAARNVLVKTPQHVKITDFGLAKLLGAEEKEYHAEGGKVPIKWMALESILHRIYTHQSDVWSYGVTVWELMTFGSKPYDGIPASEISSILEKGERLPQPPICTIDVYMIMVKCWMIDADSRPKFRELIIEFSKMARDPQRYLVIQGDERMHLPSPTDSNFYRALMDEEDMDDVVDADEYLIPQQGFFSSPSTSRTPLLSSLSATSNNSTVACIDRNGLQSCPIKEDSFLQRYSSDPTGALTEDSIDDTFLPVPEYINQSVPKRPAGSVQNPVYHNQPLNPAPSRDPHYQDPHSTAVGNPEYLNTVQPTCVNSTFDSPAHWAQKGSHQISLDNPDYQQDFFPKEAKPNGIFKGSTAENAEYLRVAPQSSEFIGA

Take `N#C/C(=C\c1ccc([N+](=O)[O-])s1)S(=O)(=O)c1ccccc1` [Example G771, (E)-3-(2-nitrothien-5-yl)-2-phenylsulfonylacrylonitrile]: on EGFR, the IC50 was more than 100 µM.
Turning to `N#C/C(=C\c1ccc([N+](=O)[O-])s1)S(=O)(=O)c1ccccn1` [Example G772, (E)-3-(2-nitrothien-5-yl)-2-[(pyridin-2-yl)sulfonyl]acrylonitrile], the IC50 at EGFR is more than 100 µM.
With `COC1C=CC=C(C)C(=O)NC2=CC(=O)C=C(C2=O)C(OC)C(C)CC(OC)C(OC)C(C)C=C(C)C1OC(N)=O` (stereo not shown) [Herbimycin A], in test [1], the “said to inhibit the IGF-1R protein tyrosine kinase” value is reported as “inhibit”. Besides, the “said to inhibit cellular proliferation in human breast cancer cells” value in test [2] is reported as “inhibit”.
